Measurements from ChEMBL document CHEMBL5512682, “Discovery of BMS-986308: A Renal Outer Medullary Potassium Channel Inhibitor for the Treatment of Heart Failure” (J Med Chem, 2024).
≈ marks a conversion by molar mass, not a printed value.

Tests used:
[1] = Cytotoxicity against human HepG2 cells; assay type: toxicity, cell-based
[2] = Oral bioavailability in Cynomolgus monkey at 5 mg/kg; assay type: ADME, organism-based, Macaca fascicularis; settings: in vivo
[3] = Half-life in dog at 2 mg/kg, iv; assay type: ADME, organism-based, Canis lupus familiaris; settings: in vivo
[4] = target: Inward rectifier potassium channel 4 (Homo sapiens, UniProt P48050); experiment: Inhibition of Kir 2.3 (unknown origin)
[5] = MRT in Cynomolgus monkey at 2 mg/kg, iv; assay type: ADME, organism-based, Macaca fascicularis; settings: in vivo
[6] = target: Bile salt export pump (Homo sapiens, UniProt O95342); experiment: Inhibition of BSEP (unknown origin)
[7] = target: Cytochrome P450 2B6 (Homo sapiens, UniProt P20813); experiment: Inhibition of CYP2B6 in human liver microsomes; assay type: ADME, Microsome
[8] = target: ATP-sensitive inward rectifier potassium channel 10 (Homo sapiens, UniProt P78508); experiment: Inhibition of Kir 4.1 (unknown origin)
[9] = Oral bioavailability in male Sprague-Dawley rat at 5 mg/kg measured after 24 hrs by LC-MS/MS analysis; assay type: ADME, organism-based; settings: in vivo
[10] = Protein binding in rat plasma assessed as unbound fraction; assay type: ADME, cell-free
[11] = Permeability of compound from basolateral to apical side in human Caco-2 cells; assay type: ADME, cell-based
[12] = Tmax in dog at 5 mg/kg, po; assay type: ADME, organism-based, Canis lupus familiaris; settings: in vivo
[13] = Cmax in male Sprague-Dawley rat at 5 mg/kg, po measured after 24 hrs by LC-MS/MS analysis; assay type: ADME, organism-based; settings: in vivo
[14] = target: Hepatic sodium/bile acid cotransporter (Homo sapiens, UniProt Q14973); experiment: Inhibition of NTCP (unknown origin)
[15] = Volume of distribution at steady state in male Sprague-Dawley rat at 2 mg/kg, iv measured after 24 hrs by LC-MS/MS analysis; assay type: ADME, organism-based; settings: in vivo, read-out: Vdss
[16] = target: Inward rectifier potassium channel 2 (Homo sapiens, UniProt P63252); experiment: Inhibition of Kir 2.1 (unknown origin)
[17] = target: CYP1A2 (Homo sapiens, UniProt P05177); experiment: Induction of CYP1A2 (unknown origin); assay type: ADME
[18] = Volume of distribution at steady state in Cynomolgus monkey at 2 mg/kg, iv; assay type: ADME, organism-based, Macaca fascicularis; settings: in vivo, read-out: Vdss
[19] = target: Solute carrier organic anion transporter family member 1B3 (Homo sapiens, UniProt Q9NPD5); experiment: Inhibition of OATP1B3 (unknown origin)
[20] = Volume of distribution at steady state in mouse at 2 mg/kg, iv; assay type: ADME, organism-based; settings: in vivo, read-out: Vdss
[21] = target: Multidrug and toxin extrusion protein 1 (Homo sapiens, UniProt Q96FL8); experiment: Inhibition of MATE1 (unknown origin)
[22] = AUC (0 to t) in Cynomolgus monkey at 5 mg/kg, po; assay type: ADME, organism-based, Macaca fascicularis; settings: in vivo
[23] = target: Cytochrome P450 2C19 (Homo sapiens, UniProt P33261); experiment: Inhibition of CYP2C19 in human liver microsomes; assay type: ADME, Microsome
[24] = target: Cytochrome P450 2D6 (Homo sapiens, UniProt P10635); experiment: Inhibition of CYP2D6 in human liver microsomes; assay type: ADME, Microsome
[25] = target: T1, Cytochrome P450 3A4 (Homo sapiens, UniProt P08684); experiment: Inhibition of CYP3A4 in human liver microsomes using midazolam as substrate; assay type: ADME, Microsome
[26] = target: ATP-binding cassette sub-family C member 2 (Homo sapiens, UniProt Q92887); experiment: Inhibition of MRP2 (unknown origin)
[27] = AUC (0 to t) in mouse at 2 mg/kg, po; assay type: ADME, organism-based; settings: in vivo
[28] = Solubility of compound at pH 7.4; assay type: physicochemical; settings: buffer
[29] = Tmax in male Sprague-Dawley rat at 5 mg/kg, po measured after 24 hrs by LC-MS/MS analysis; assay type: ADME, organism-based; settings: in vivo
[30] = target: Broad substrate specificity ATP-binding cassette transporter ABCG2 (Homo sapiens, UniProt Q9UNQ0); experiment: Inhibition of BCRP (unknown origin)
[31] = target: Nuclear receptor subfamily 1 group I member 2 (Homo sapiens, UniProt O75469); experiment: Activation of PXR (unknown origin)
[32] = Glutathione reactivity in human liver microsomes assessed as GSH-adduct formation at 10 uM incubated for 60 mins in presence of NADPH and GSH by HPLC-MS analysis; assay type: ADME, Microsome; settings: 1 h
[33] = MRT in mouse at 2 mg/kg, iv; assay type: ADME, organism-based; settings: in vivo
[34] = Tmax in mouse at 2 mg/kg, po; assay type: ADME, organism-based; settings: in vivo
[35] = Solubility of compound at pH 1.1; assay type: physicochemical; settings: buffer
[36] = target: T1, Cytochrome P450 3A4; experiment: Inhibition of CYP3A4 in human liver microsomes using testosterone as substrate; assay type: ADME, Microsome
[37] = Protein binding in mouse plasma assessed as unbound fraction; assay type: ADME, cell-free
[38] = Protein binding in Cynomolgus monkey plasma assessed as unbound fraction; assay type: ADME, cell-free, Macaca fascicularis
[39] = Cmax in dog at 5 mg/kg, po; assay type: ADME, organism-based, Canis lupus familiaris; settings: in vivo
[40] = MRT in male Sprague-Dawley rat at 2 mg/kg, iv measured after 24 hrs by LC-MS/MS analysis; assay type: ADME, organism-based; settings: in vivo
[41] = Half-life in male Sprague-Dawley rat at 2 mg/kg, iv measured after 24 hrs by LC-MS/MS analysis; assay type: ADME, organism-based; settings: in vivo
[42] = Oral bioavailability in mouse at 5 mg/kg; assay type: ADME, organism-based; settings: in vivo
[43] = Protein binding in dog plasma assessed as unbound fraction; assay type: ADME, cell-free, Canis lupus familiaris
[44] = target: Organic anion transporter 3 (Homo sapiens, UniProt Q8TCC7); experiment: Inhibition of OAT3 (unknown origin)
[45] = target: Solute carrier organic anion transporter family member 1B1 (Homo sapiens, UniProt Q9Y6L6); experiment: Inhibition of OATP1B1 (unknown origin)
[46] = AUC (0 to t) in dog at 5 mg/kg, po; assay type: ADME, organism-based, Canis lupus familiaris; settings: in vivo
[47] = target: Cytochrome P450 1A2 (Homo sapiens, UniProt P05177); experiment: Inhibition of CYP1A2 in human liver microsomes; assay type: ADME, Microsome
[48] = target: CYP2B6 (Homo sapiens, UniProt P20813); experiment: Induction of CYP2B6 (unknown origin); assay type: ADME
[49] = MRT in dog at 2 mg/kg, iv; assay type: ADME, organism-based, Canis lupus familiaris; settings: in vivo
[50] = target: Solute carrier family 22 member 6 (Homo sapiens, UniProt Q4U2R8); experiment: Inhibition of OAT1 (unknown origin)
[51] = Half-life in mouse at 2 mg/kg, iv; assay type: ADME, organism-based; settings: in vivo
[52] = Half-life in Cynomolgus monkey at 2 mg/kg, iv; assay type: ADME, organism-based, Macaca fascicularis; settings: in vivo
[53] = Metabolic stability in rat liver microsomes assessed as parent compound remaining at 10 uM measured after 10 mins in presence of NADPH and GSH by UPLC-MS/MS analysis; assay type: ADME, Microsome; settings: read-out: Stability
[54] = target: Inward rectifier potassium channel 13 (Homo sapiens, UniProt O60928); experiment: Inhibition of Kir 7.1 (unknown origin)
[55] = Cmax in mouse at 2 mg/kg, po; assay type: ADME, organism-based; settings: in vivo
[56] = Protein binding in human plasma assessed as unbound fraction; assay type: ADME, cell-free
[57] = Tmax in Cynomolgus monkey at 5 mg/kg, po; assay type: ADME, organism-based, Macaca fascicularis; settings: in vivo
[58] = Oral bioavailability in dog at 5 mg/kg; assay type: ADME, organism-based, Canis lupus familiaris; settings: in vivo
[59] = AUC (0 to t) in male Sprague-Dawley rat at 5 mg/kg, po measured after 24 hrs by LC-MS/MS analysis; assay type: ADME, organism-based; settings: in vivo
[60] = Cmax in Cynomolgus monkey at 5 mg/kg, po; assay type: ADME, organism-based, Macaca fascicularis; settings: in vivo
[61] = target: Cytochrome P450 2C8 (Homo sapiens, UniProt P10632); experiment: Inhibition of CYP2C8 in human liver microsomes; assay type: ADME, Microsome
[62] = Volume of distribution at steady state in dog at 2 mg/kg, iv; assay type: ADME, organism-based, Canis lupus familiaris; settings: in vivo, read-out: Vdss
[63] = Metabolic stability in human liver microsomes assessed as parent compound remaining at 10 uM measured after 10 mins in presence of NADPH and GSH by UPLC-MS/MS analysis; assay type: ADME, Microsome; settings: read-out: Stability
[64] = Permeability of compound from apical to basolateral side in human Caco-2 cells; assay type: ADME, cell-based; settings: read-out: permeability
[65] = target: Cytochrome P450 2C9 (Homo sapiens, UniProt P11712); experiment: Inhibition of CYP2C9 in human liver microsomes; assay type: ADME, Microsome
[66] = target: CYP3A4 (Homo sapiens, UniProt P08684); experiment: Induction of CYP3A4 (unknown origin); assay type: ADME
Chain of CYP3A4 (P08684 whole entry): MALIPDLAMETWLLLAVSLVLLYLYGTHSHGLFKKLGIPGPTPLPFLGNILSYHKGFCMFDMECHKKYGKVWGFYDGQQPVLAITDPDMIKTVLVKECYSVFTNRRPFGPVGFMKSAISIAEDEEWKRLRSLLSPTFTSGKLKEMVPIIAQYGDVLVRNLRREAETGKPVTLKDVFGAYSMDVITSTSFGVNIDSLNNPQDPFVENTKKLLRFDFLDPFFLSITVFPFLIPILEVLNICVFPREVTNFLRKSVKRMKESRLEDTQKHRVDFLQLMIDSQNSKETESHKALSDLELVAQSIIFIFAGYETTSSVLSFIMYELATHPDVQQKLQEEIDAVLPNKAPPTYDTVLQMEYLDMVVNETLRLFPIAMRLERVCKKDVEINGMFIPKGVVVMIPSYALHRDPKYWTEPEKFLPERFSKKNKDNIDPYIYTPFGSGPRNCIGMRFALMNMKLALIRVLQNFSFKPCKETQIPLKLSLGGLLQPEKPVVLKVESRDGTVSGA

T1 sequence (P08684 whole entry): as above
Chain of Cytochrome P450 2D6 (P10635 whole entry): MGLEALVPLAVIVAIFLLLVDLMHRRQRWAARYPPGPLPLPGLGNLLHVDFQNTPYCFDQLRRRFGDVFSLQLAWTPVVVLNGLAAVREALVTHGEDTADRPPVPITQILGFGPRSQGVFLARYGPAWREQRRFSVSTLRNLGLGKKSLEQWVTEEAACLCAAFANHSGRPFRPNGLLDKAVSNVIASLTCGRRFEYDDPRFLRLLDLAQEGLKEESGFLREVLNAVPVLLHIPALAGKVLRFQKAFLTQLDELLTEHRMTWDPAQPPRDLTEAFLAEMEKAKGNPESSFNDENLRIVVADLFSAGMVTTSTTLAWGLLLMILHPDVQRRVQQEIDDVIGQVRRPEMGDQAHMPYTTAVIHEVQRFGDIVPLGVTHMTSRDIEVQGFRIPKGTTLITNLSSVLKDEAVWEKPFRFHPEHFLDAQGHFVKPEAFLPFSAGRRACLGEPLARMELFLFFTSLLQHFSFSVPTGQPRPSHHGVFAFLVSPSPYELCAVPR
Chain of Cytochrome P450 1A2 (P05177 whole entry): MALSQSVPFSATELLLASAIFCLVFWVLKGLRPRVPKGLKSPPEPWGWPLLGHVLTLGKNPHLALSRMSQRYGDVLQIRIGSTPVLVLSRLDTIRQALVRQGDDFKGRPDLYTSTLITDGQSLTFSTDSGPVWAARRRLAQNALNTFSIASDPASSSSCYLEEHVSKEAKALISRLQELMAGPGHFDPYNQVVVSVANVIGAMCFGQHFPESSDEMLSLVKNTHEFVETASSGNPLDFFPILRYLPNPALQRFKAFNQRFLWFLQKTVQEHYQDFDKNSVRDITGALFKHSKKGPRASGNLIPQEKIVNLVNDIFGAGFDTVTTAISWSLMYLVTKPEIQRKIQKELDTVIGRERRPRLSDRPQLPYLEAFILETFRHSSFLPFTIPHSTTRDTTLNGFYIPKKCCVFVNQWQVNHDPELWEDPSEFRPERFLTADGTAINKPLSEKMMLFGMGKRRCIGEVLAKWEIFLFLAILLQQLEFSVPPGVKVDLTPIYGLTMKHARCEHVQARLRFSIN
Chain of CYP1A2 (P05177 whole entry): as above
Chain of Cytochrome P450 2C9 (P11712 whole entry): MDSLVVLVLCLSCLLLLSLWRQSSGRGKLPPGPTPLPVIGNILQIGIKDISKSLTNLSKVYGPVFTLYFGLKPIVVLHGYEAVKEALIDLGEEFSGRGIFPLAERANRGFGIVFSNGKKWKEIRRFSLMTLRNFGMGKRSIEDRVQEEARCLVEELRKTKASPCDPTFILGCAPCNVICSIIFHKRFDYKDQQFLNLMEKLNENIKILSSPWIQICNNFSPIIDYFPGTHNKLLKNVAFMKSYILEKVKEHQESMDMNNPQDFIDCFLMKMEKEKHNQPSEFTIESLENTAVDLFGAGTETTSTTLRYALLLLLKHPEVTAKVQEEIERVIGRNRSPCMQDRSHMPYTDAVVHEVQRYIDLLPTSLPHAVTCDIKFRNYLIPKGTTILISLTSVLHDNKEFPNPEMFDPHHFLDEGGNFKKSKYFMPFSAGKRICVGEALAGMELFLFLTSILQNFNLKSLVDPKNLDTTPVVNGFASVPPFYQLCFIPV
Chain of Inward rectifier potassium channel 4 (P48050 whole entry): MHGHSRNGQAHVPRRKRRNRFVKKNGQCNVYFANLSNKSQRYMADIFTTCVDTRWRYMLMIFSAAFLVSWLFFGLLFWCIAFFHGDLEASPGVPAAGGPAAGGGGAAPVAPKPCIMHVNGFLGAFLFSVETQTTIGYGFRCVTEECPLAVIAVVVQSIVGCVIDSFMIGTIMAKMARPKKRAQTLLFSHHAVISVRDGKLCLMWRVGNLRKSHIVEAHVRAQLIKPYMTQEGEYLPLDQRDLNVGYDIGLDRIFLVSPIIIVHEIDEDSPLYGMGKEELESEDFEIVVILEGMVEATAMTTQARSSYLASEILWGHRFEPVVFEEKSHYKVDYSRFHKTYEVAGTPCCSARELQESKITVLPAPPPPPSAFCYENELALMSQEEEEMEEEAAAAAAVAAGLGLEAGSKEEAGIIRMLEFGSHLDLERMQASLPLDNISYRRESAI
Chain of Inward rectifier potassium channel 2 (P63252 whole entry): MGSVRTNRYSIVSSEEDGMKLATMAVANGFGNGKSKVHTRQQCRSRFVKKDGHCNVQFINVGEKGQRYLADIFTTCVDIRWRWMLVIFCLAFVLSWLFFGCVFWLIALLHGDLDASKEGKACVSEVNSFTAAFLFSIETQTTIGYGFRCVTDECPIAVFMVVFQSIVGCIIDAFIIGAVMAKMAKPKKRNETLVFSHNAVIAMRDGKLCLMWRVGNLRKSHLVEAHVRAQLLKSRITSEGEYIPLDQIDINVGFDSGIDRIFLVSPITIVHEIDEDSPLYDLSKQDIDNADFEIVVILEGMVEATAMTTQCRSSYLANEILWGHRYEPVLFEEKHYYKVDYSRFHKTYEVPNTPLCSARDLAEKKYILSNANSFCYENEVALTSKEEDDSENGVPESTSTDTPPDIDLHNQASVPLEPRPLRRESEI
Chain of Inward rectifier potassium channel 13 (O60928 whole entry): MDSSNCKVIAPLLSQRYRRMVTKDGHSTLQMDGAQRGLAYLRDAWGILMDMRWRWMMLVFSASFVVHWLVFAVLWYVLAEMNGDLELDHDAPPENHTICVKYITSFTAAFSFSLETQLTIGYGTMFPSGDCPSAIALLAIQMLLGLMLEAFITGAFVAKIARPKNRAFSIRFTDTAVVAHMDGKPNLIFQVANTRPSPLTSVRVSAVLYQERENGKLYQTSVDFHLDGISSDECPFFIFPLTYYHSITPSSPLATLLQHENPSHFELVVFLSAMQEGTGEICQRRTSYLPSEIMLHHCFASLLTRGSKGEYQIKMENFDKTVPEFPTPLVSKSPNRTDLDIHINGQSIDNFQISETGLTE
Chain of CYP2B6 (P20813 whole entry): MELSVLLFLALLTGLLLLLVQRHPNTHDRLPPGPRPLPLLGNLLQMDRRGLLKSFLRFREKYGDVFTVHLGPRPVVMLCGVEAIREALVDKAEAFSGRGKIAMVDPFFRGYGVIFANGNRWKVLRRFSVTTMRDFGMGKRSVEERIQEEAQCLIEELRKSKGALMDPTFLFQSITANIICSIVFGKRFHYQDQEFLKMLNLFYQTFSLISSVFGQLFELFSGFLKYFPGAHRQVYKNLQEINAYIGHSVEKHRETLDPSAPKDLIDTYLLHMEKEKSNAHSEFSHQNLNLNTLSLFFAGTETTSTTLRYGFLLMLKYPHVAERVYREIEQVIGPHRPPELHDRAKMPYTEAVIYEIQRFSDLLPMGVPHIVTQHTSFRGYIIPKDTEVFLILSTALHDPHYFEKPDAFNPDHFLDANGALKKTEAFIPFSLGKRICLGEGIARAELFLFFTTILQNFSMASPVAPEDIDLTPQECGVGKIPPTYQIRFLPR
Chain of Cytochrome P450 2B6 (P20813 whole entry): as above
Chain of Solute carrier organic anion transporter family member 1B1 (Q9Y6L6 whole entry): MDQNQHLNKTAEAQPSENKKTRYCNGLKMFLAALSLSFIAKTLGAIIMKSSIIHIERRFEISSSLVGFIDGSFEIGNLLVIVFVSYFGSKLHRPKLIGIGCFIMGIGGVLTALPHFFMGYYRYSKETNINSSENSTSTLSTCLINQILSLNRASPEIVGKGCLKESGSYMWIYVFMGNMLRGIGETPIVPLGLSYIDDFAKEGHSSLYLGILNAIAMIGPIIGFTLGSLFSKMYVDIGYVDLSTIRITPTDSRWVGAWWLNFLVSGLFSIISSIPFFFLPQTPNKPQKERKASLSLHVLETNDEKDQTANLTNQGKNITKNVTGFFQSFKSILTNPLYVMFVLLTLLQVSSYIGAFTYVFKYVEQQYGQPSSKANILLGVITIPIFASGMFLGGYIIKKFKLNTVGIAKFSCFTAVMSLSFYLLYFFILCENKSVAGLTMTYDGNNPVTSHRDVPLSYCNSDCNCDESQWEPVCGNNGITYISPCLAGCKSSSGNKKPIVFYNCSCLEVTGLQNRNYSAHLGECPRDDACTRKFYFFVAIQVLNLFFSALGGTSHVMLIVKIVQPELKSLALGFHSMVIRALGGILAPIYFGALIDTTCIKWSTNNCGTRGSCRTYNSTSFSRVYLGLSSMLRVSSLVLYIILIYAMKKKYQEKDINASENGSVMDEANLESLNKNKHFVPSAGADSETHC
Chain of Hepatic sodium/bile acid cotransporter (Q14973 whole entry): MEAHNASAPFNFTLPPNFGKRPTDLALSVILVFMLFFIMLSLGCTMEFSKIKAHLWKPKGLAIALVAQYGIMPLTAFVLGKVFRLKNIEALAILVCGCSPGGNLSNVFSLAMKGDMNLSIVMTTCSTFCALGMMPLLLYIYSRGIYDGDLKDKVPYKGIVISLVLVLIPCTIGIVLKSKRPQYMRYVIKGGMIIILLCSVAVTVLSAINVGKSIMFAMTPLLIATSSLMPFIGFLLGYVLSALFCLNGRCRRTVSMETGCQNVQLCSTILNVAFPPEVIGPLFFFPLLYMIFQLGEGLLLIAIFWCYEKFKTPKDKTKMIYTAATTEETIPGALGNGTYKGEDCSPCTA

Cc1cc(-n2ncc(CN3C[C@@H](c4ccc5c(c4C)COC5=O)N[C@@H](C)C3)n2)ncc1C#N
IC50 [1]: > 100 µM
bioavailability [2]: 69%
half-life [3]: 3.3 h
IC50 [4]: > 10 µM
MRT [5]: 3.6 h
IC50 [6]: 7 µM
IC50 [7]: > 40 µM
IC50 [8]: > 10 µM
bioavailability [9]: 76%
PPB [10]: 68%
permeability [11]: 570 10^-6 cm/s
Tmax [12]: 0.8 h
Cmax [13]: 3800 nM
IC50 [14]: > 18 µM
Vd [15]: 2.8 L/kg
IC50 [16]: > 10 µM
IC50 [17]: > 40 µM
Vd [18]: 5.1 L/kg
IC50 [19]: > 18 µM
Vd [20]: 2.6 L/kg
IC50 [21]: 2.7 µM
AUC(0-t) [22]: 5.5 µM·h
IC50 [23]: > 40 µM
IC50 [24]: > 40 µM
IC50 [25]: > 40 µM
IC50 [26]: > 18 µM
AUC(0-t) [27]: 14 µM·h
solubility [28]: 30 µg/mL (≈ 0.0676 mM)
Tmax [29]: 0.8 h
IC50 [30]: > 18 µM
EC50 [31]: > 50 µM
Activity [32]: Not Active
MRT [33]: 4 h
Tmax [34]: 0.25 h
solubility [35]: 14000 µg/mL (≈ 31.6 mM)
IC50 [36]: > 40 µM
PPB [37]: 83%
PPB [38]: 74%
Cmax [39]: 1900 nM
MRT [40]: 5.8 h
half-life [41]: 4.8 h
bioavailability [42]: 83%
PPB [43]: 76%
IC50 [44]: > 18 µM
IC50 [45]: > 18 µM
AUC(0-t) [46]: 5.7 µM·h
IC50 [47]: > 40 µM
IC50 [48]: > 40 µM
MRT [49]: 1.7 h
IC50 [50]: > 18 µM
half-life [51]: 2.8 h
half-life [52]: 4.2 h
remaining at 10 min, 10 µM [53]: 92%
IC50 [54]: > 10 µM
Cmax [55]: 2800 nM
PPB [56]: 52%
Tmax [57]: 2 h
bioavailability [58]: 48%
AUC(0-t) at 24 h [59]: 18 µM·h
Cmax [60]: 1000 nM
IC50 [61]: > 40 µM
Vd [62]: 1.7 L/kg
remaining at 10 min, 10 µM [63]: 90%
Papp A→B [64]: 110 ×10⁻⁶ cm/s
IC50 [65]: > 40 µM
IC50 [66]: > 40 µM
